Laboratory results as given in patent US9624239B2, “Protein kinase inhibitors” (Pharmascience Inc., priority 2011, dated 2017).

Assays:
[1] = target: T1, histidine tagged recombinant Human Lymphocyte-Specific Protein Tyrosine Kinase (Lck) (Homo sapiens, UniProt P06239); assay: Lck kinase inhibition assay (fluorescence polarization, KinEASE FP Fluorescein Green); format: biochemical; details: 10 μM ATP, 250 μM substrate, 60 minutes, room temperature; Ki from IC50 by Cheng-Prusoff
T1 construct: histidine tag
T1 sequence (P06239 whole entry): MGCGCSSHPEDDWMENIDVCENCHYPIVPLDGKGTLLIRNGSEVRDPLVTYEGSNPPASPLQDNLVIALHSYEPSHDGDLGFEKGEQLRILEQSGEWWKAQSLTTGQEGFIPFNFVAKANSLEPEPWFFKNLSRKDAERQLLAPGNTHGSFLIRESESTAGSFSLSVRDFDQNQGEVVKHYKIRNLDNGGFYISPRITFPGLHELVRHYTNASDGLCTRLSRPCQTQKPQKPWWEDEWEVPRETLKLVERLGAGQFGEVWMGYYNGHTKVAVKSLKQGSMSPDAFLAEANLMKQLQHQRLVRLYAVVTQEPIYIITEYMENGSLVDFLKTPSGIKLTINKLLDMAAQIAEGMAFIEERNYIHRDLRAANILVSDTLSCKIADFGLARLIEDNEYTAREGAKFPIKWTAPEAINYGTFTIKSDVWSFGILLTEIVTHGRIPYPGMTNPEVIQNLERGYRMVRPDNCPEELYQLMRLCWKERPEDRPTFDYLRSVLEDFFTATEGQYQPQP
Method: (§1) Kinase Binding Btk and Lck Kinase Inhibition Assay
(§2) Fluorescence polarization-based kinase assays were performed in 384 well-plate format using histidine tagged recombinant human full-length Bruton Agammaglobulinemia Tyrosine Kinase (Btk) or histidine tagged recombinant Human Lymphocyte-Specific Protein Tyrosine Kinase (Lck) and a modified protocol of the KinEASE™ FP Fluorescein Green Assay supplied from Millipore. Kinase reaction were performed at room temperature for 60 minutes in presence of 250 μM substrate, 10 μM ATP and variable test article concentrations. The reaction was stopped with EDTA/kinease detection reagents and the polarization measured on a Tecan 500 instrument. From the dose-response curve obtained, the IC50 was calculated using Graph Pad Prisms® using a non-linear fit curve. The Km for ATP on each enzyme was experimentally determined and the Ki values calculated using the Cheng-Prusoff equation (see: Cheng Y, Prusoff W H. (1973) Relationship between the inhibition constant (K1) and the concentration of inhibitor which causes 50 percent inhibition (I50) of an enzymatic reaction”. Biochem Pharmacol 22 (23): 3099-108).
(§3) ki values are reported in Tables 2 and 3: • a—Less than 100 nM; b—less than 1000 nM; c—more than 1000 nM

[2] = target: T2, histidine tagged recombinant human full-length Bruton Agammaglobulinemia Tyrosine Kinase (Btk) (Homo sapiens, UniProt Q06187); assay: Btk kinase inhibition assay (fluorescence polarization, KinEASE FP Fluorescein Green); format: biochemical; details: 10 μM ATP, 250 μM substrate, 60 minutes, room temperature; Ki from IC50 by Cheng-Prusoff; read-out: ki50 (nM), Inhibition of Btk
T2 construct: recombinant human full-length Bruton Agammaglobulinemia Tyrosine Kinase (Btk); histidine tag
T2 sequence (Q06187 whole entry): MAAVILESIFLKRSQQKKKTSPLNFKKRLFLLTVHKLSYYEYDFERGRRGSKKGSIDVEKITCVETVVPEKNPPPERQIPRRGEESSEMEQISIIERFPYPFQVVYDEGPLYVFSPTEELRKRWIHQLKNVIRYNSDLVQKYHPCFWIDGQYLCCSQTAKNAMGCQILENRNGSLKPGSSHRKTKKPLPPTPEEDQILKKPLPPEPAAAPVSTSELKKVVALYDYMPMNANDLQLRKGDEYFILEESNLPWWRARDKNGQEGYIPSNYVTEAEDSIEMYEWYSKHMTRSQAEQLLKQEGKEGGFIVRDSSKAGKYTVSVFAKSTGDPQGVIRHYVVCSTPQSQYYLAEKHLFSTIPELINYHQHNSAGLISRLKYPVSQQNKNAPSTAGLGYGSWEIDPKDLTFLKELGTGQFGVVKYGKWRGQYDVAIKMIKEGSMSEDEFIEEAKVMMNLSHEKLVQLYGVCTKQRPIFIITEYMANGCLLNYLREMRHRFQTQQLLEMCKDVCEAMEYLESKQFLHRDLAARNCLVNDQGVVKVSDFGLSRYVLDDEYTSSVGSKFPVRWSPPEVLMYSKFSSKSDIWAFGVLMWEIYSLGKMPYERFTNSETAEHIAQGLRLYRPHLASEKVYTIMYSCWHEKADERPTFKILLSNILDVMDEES
Method: as §1, §2, §3

mouse splenocytes = assay: Splenic cell proliferation assay (anti-IgM stimulated B cell proliferation, Cell Titer-Glo); format: cell-based; details: Splenocyte; CD1 mouse splenocytes, 1 h pre-treatment, 2.5 ug/ml anti-IgM F(ab')2 for 72 h; read-out: EC50 (nM), Inhibition of splenic cell proliferation
Method: Splenic Cell Proliferation Assay
Splenocytes were obtained from 6 week old male CD1 mice (Charles River Laboratories Inc.). Mouse spleens were manually disrupted in PBS and filtered using a 70 μm cell strainer followed by ammonium chloride red blood cell lysis. Cells were washed, resuspended in Splenocyte Medium (HyClone RPMI supplemented with 10% heat-inactivated FBS, 0.5× non-essential amino acids, 10 mM HEPES, 50 uM beta mercaptoethanol) and incubated at 37° C., 5% CO2 for 2 h to remove adherent cells. Suspension cells were seeded in 96 well plates at 50,000 cells per well and incubated at 37° C., 5% CO2 for 1 h. Splenocytes were pre-treated in triplicate with 10,000 nM curves of Formula 1 compounds for 1 h, followed by stimulation of B cell proliferation with 2.5 ug/ml anti-IgM F(ab′)2 (Jackson ImmunoResearch) for 72 h. Cell proliferation was measured by Cell Titer-Glo Luminescent Assay (Promega). EC50 values (50% proliferation in the presence of compound as compared to vehicle treated controls) were calculated from dose response compound curves using GraphPad Prism Software.
EC50 values are reported in Table 4: • a—Less than 100 nM; b—less than 1000 nM; c—more than 1000 nM

| Ki [1] | Ki [2] | SMILES | EC50 (mouse splenocytes) |
| --- | --- | --- | --- |
| > 1000 nM | > 1000 nM | Nc1ncnc2c3c(n(-c4ccc(Oc5ccc(F)cc5)cc4)c12)CCC3 [Compound 2] | > 1000 nM |
| < 1000 nM | < 1000 nM | Nc1ncnc2c3c(n(-c4ccc(Oc5ccc(Br)cc5)cc4)c12)CCC3 [Compound 3] | > 1000 nM |
| < 1000 nM | < 1000 nM | Nc1ncnc2c3c(n(-c4ccc(Oc5ccc(Cl)cc5)cc4)c12)CCC3 [Compound 4] | > 1000 nM |
| < 1000 nM | > 1000 nM | Nc1ncnc2c3c(n(-c4ccc(Oc5ccccc5)cc4)c12)CNC3 [Compound 7] | > 1000 nM |
| < 1000 nM | < 1000 nM | Nc1ncnc2c3c(n(-c4ccc(Oc5ccccc5)cc4)c12)CCCC3 [Compound 13] | > 1000 nM |
| < 1000 nM | > 1000 nM | CCN1Cc2c(n(-c3ccc(Oc4ccccc4)cc3)c3c(N)ncnc23)C1 [Compound 14] | > 1000 nM |
| < 100 nM | < 100 nM | CC1OCc2c1c1ncnc(N)c1n2-c1ccc(Oc2ccccc2)cc1 (stereo not drawn) [Compound 20] | 100 to 1000 nM |
| < 100 nM | < 1000 nM | Nc1ncnc2c3c(n(-c4ccc(Oc5ccccc5)cc4)c12)COC3 [Compound 21] | > 1000 nM |
| < 100 nM | < 1000 nM | COc1cc(-n2c3c(c4ncnc(N)c42)CCC3)ccc1Oc1ccccc1 [Compound 23] | > 1000 nM |
| < 100 nM | < 1000 nM | CCC1OCc2c1c1ncnc(N)c1n2-c1ccc(Oc2ccccc2)cc1 (stereo not drawn) [Compound 24] | 100 to 1000 nM |
| < 100 nM | < 100 nM | COc1cccc(Oc2ccc(-n3c4c(c5ncnc(N)c53)C(C)OC4)cc2)c1 (stereo not drawn) [Compound 25] | 100 to 1000 nM |
| < 1000 nM | > 1000 nM | Nc1ncnc2c3c(n(-c4ccc(Oc5ccccc5)cc4)c12)COC3CCCOCc1ccccc1 (stereo not drawn) [Compound 26] | > 1000 nM |
| < 100 nM | < 1000 nM | Nc1ncnc2c3c(n(-c4ccc(Oc5ccccc5)cc4)c12)COC3CCCO (stereo not drawn) [Compound 27] | > 1000 nM |
| < 1000 nM | < 1000 nM | COc1ccccc1Oc1ccc(-n2c3c(c4ncnc(N)c42)C(C)OC3)cc1 (stereo not drawn) [Compound 28] | > 1000 nM |
| < 1000 nM | < 1000 nM | CC1OCc2c1c1ncnc(N)c1n2-c1ccc(Oc2cccc(C(F)(F)F)c2)cc1 (stereo not drawn) [Compound 29] | 100 to 1000 nM |
| < 1000 nM | < 100 nM | Nc1ncnc2c3c(n(-c4ccc(Oc5ccccc5)cc4)c12)COC3c1ccccc1 (stereo not drawn) [Compound 30] | > 1000 nM |
| < 100 nM | < 1000 nM | CC1OCc2c1c1ncnc(N)c1n2-c1ccc(Oc2cccc(Cl)c2)cc1 (stereo not drawn) [Compound 31] | 100 to 1000 nM |
| < 1000 nM | < 1000 nM | CC1OCc2c1c1ncnc(N)c1n2-c1ccc(Oc2ccccc2C(F)(F)F)cc1 (stereo not drawn) [Compound 32] | 100 to 1000 nM |
| < 100 nM | < 1000 nM | CC1OCc2c1c1ncnc(N)c1n2-c1ccc(Oc2ccccc2Cl)cc1 (stereo not drawn) [Compound 33] | 100 to 1000 nM |
| < 100 nM | < 100 nM | CC1OCc2c1c1ncnc(N)c1n2-c1ccc(Oc2ccccc2F)cc1 (stereo not drawn) [Compound 34] | > 1000 nM |
| < 1000 nM | < 1000 nM | CC1OCc2c1c1ncnc(N)c1n2-c1ccc(Oc2cccc(F)c2)cc1 (stereo not drawn) [Compound 35] | > 1000 nM |

| Ki [1] | Ki [2] | SMILES | EC50 (mouse splenocytes) |
| --- | --- | --- | --- |
| < 1000 nM | > 1000 nM | Nc1ncnc2c3c(n(-c4ccc(Oc5ccccc5)cc4)c12)COC3CCCOc1ccccc1 (stereo not drawn) [Compound 36] | > 1000 nM |
| > 1000 nM | > 1000 nM | CC1OCc2c1c1ncnc(N)c1n2-c1ccc(Oc2cccc(C#N)c2)cc1 (stereo not drawn) [Compound 37] | > 1000 nM |
| > 1000 nM | > 1000 nM | CC1OCc2c1c1ncnc(N)c1n2-c1ccc(Oc2cccc(C(N)=O)c2)cc1 (stereo not drawn) [Compound 38] | > 1000 nM |
| < 100 nM | < 1000 nM | CC1OCc2c1c1ncnc(N)c1n2-c1ccc(Oc2ccccc2)c(Cl)c1 (stereo not drawn) [Compound 39] | > 1000 nM |
| < 100 nM | < 1000 nM | CC1OCc2c1c1ncnc(N)c1n2-c1ccc(Oc2ccccc2)c(F)c1 (stereo not drawn) [Compound 40] | 100 to 1000 nM |
| < 100 nM | < 100 nM | CCOc1cccc(Oc2ccc(-n3c4c(c5ncnc(N)c53)C(C)OC4)cc2)c1 (stereo not drawn) [Compound 41] | 100 to 1000 nM |
| < 1000 nM | > 1000 nM | CC1OCc2c1c1ncnc(N)c1n2-c1ccc(Oc2ccc(F)cc2)cc1 (stereo not drawn) [Compound 42] | > 1000 nM |
| < 100 nM | < 100 nM | CC1OCc2c1c1ncnc(N)c1n2-c1ccc(Oc2cccc(OCc3ccccc3)c2)cc1 (stereo not drawn) [Compound 43] | 100 to 1000 nM |
| < 100 nM | < 100 nM | CC1OCc2c1c1ncnc(N)c1n2-c1ccc(Oc2cccc(O)c2)cc1 (stereo not drawn) [Compound 44] | > 1000 nM |
| < 1000 nM | > 1000 nM | CC1OCc2c1c1ncnc(N)c1n2-c1ccc(Oc2cccc([N+](=O)[O-])c2)cc1 (stereo not drawn) [Compound 45] | > 1000 nM |
| < 100 nM | < 100 nM | CC1OCc2c1c1ncnc(N)c1n2-c1ccc(Oc2cccc(OCC#N)c2)cc1 (stereo not drawn) [Compound 46] | 100 to 1000 nM |
| < 100 nM | < 100 nM | CC1OCc2c1c1ncnc(N)c1n2-c1ccc(Oc2cccc(OCc3ccc(F)cc3)c2)cc1 (stereo not drawn) [Compound 49] | 100 to 1000 nM |
| < 100 nM | < 100 nM | CC1OCc2c1c1ncnc(N)c1n2-c1ccc(Oc2cccc(OCCOc3ccc(Cl)cc3)c2)cc1 (stereo not drawn) [Compound 50] | > 1000 nM |
| < 100 nM | < 100 nM | CC1OCc2c1c1ncnc(N)c1n2-c1ccc(Oc2cccc(OCc3cccnc3)c2)cc1 (stereo not drawn) [Compound 53] | 100 to 1000 nM |
| < 100 nM | < 100 nM | CC1OCc2c1c1ncnc(N)c1n2-c1ccc(Oc2cccc(OCc3ccncc3)c2)cc1 (stereo not drawn) [Compound 54] | > 1000 nM |
| < 100 nM | < 100 nM | CC1OCc2c1c1ncnc(N)c1n2-c1ccc(Oc2cccc(OCC3CCCCC3)c2)cc1 (stereo not drawn) [Compound 56] | > 1000 nM |
| < 100 nM | < 100 nM | CC1OCc2c1c1ncnc(N)c1n2-c1ccc(Oc2cccc(OCc3ccc(C(F)(F)F)cc3)c2)cc1 (stereo not drawn) [Compound 57] | > 1000 nM |
| < 100 nM | < 1000 nM | CC1OCc2c1c1ncnc(N)c1n2-c1ccc(Oc2ccccc2C#N)cc1 (stereo not drawn) [Compound 58] | 100 to 1000 nM |
| < 100 nM | < 1000 nM | COc1cc(F)cc(Oc2ccc(-n3c4c(c5ncnc(N)c53)C(C)OC4)cc2)c1 (stereo not drawn) [Compound 59] | 100 to 1000 nM |
| < 1000 nM | > 1000 nM | CC1OCc2c1c1ncnc(N)c1n2-c1ccc(Oc2ccccc2C(N)=O)cc1 (stereo not drawn) [Compound 60] | > 1000 nM |
| < 100 nM | > 1000 nM | Nc1ncnc2c3c(n(-c4ccc(Oc5cccc(O)c5)cc4)c12)CCC3 [Compound 61] | > 1000 nM |
